In patent US11839615B2, “Compounds and methods for treating addiction and related disorders” (Astrocyte Pharmaceuticals, Inc., priority 2018, dated 2023):

Experiments:
cultured astrocytes = test: Ca2+ measurements in dye-loaded (Cal520) cultured astrocytes; assay type: cell-based, mouse
Description: FIG. 1: AST-004 increases intracellular Ca^2+ in cultured astrocytes. A) Image of resting Ca^2+ levels in dye-loaded (Cal520) astrocytes. B) Spatio-temporal plot of Ca^2+ fluorescence for the vertical line in panel A. AST-004 was added at 2 min. Note the oscillatory Ca^2+ responses for over 6 minutes. C) Plot of integrated Ca^2+ fluorescence intensities (DF/F0) at the indicated A3R agonist concentrations. Values are mean+/−SEM (data pooled from 3 experiments at each concentration). Images were acquired on the Nikon Sweptfield confocal microscope.
The low level stimulation of Ca2+ release persisted throughout the recording (FIG. 1A,B). It was not blocked by pertussis toxin treatment, consistent with Gq-coupling. The integrated Ca^2+ response was also dose-dependent (FIG. 1C) and present in astrocytes cultured from mouse, rat, pig and human brain tissue.
Protocol was modified from McCarthy et al., 1980 (4). Briefly, mice were anesthetized with isoflurane then cervically dislocated. Brains were quickly removed and chopped in trypsin, and allowed to incubate at 37° C. for 30 mins. DMEM/F-12 Media with 10% FCS and primocin was added and brains were triturated to homogenization and filtered through […] mesh, and seeded into culture flasks. The next day, homogenates were transferred to a new flask, and previous flasks had new media added. Cells were grown for 3-4 weeks, with DMEM/F-12 media changes every 3-4 days until cells were 70% confluent.
Ca^2+ activity was imaged as previously described (5). In brief, astrocytes were seeded on glass cover slips 3 and 4 nights before each experiment. Culture dishes were incubated with a fluorescent Ca^2+ sensitive dye (10 μM, Cal520, cell permeant, Abcam) 30 min prior to the experiment. Images were acquired with a confocal laser-scanning microscope at the rate of 1.5 images/s. Data were obtained in recording buffer (120 mM NaCl, 4.5 mM KCl, 1 mm CaCl2), 2 mM MgCl2, 10 mM HEPES, pH 7.4) at room temperature. Images were analyzed with Image J and NIS Elements.

astrocytes (C8-D1A) = test: Oxygen consumption rate (OCR), Seahorse; assay type: cell-based
Description: FIG. 2: Oxygen Consumption Rate (OCR) is increased by purinergic agonist AST-004. Cultured astrocytes were plated on a standard Seahorse dish (24 well). After establishing basal OCR, purinergic agonist AST-004 or control (antagonist) was added at first arrow. […] The final addition of mitochondrial inhibitors uncovered non-mitochondrial OCR sources.
We previously reported that any agonist stimulating IP3-mediated Ca^2+ increases in astrocytes increased ATP production in astrocytes (1). […] Minimal change was observed under control injections. […] Addition of rotenone and antimycin uncovered non-mitochondrial sources of oxygen consumption, which was subtracted off from all measurements prior to calculations.
OCR was measured to calculate mitochondrial respiration and performed with a Seahorse XF96 extracellular flux analyzer. A 96-well system measures OCR from a monolayer of cultured intact cells, at intervals of ˜5 minutes. Astrocytes were plated on Seahorse microplates at least 2 days prior to OCR measurements. […] Injection of rotenone and antimycin, inhibitors of complex I and III respectively, uncover non-mitochondrial oxygen consumption.

[1] = test system: photothrombosis-induced stroke; test: Photothrombotic induced model of stroke, lesion volume by TTC staining; assay type: in vivo, mouse
[2] = test system: astrocytes of transgenic mice expressing the Luciferase-reporter gene (GFAP promoter); test: In vivo bioluminescent imaging of ATP in astrocytes after blunt TBI; parameters: species or system mouse; details: IP injection, two to 4 days after TBI, vs vehicle
Description: FIG. 5: In Vivo Bioluminescent Imaging indicates AST-004 increases ATP. A) Transgenic mice expressing the Luciferase-reporter gene in astrocytes (GFAP promoter) were subjected to blunt TBI (Closed Cortical Impact). Two to 4 days after the initial trauma, mice were IP injected with a synthetic D-luciferin analogue (Cytluc1, 100 ul). Bioluminescent signals were recorded with an IVIS Spectrum Imager, 5 min after Cycluc1 injection (green arrow). Mice were then IP injected with either vehicle or AST-004 at […] (blue arrow), the photon flux immediately measured and then compared to the photon flux at 20 minutes (red arrow).
Transgenic mice expressing the Luciferase-reporter gene in astrocytes (GFAP promoter, Dual-Glo mice, Jackson laboratories) were subjected to blunt TBI (Closed Cortical Impact). Two to 4 days after the initial trauma, mice were IP injected with a synthetic D-luciferin analogue (Cycluc 1) and bioluminescent signals recorded on an IVIS Spectrum Imager (FIG. 5A).

astrocytes = test: Determination of ATP levels in astrocytes (luciferin-luciferase kit), control or GLUD1 shRNA; assay type: cell-based
Description: FIG. 7: GLUD1 Knockdown (KD) in astrocytes blocks P2Y1R and A3R-stimulated increases in ATP. A, B) Cells were treated with P2Y1R agonist MRS2365 for 20 mins in either normal glucose medium (A) or a glucose-free, galactose (B) supplemented media. Galactose forces cells to use oxidative phosphorylation for energy metabolism. […] Intracellular ATP levels were measured with a luciferin-luciferase kit.
P2Y1R and A3R agonists increased mitochondrial ATP production in astrocytes in a manner that was dependent on GLUD1 expression. One possible hypothesis is that glutamate catabolism into α-KG is mediated by GLUD1, which is enhanced by Ca^2+ dependent stimulation of the ICDH and α-KGDH in the TCA cycle. To test this hypothesis, GLUD1 expression levels were reduced in astrocyte cultures by incubating cells with specific shRNA. […] We repeated these experiments in the presence of galactose, a carbon source that forces cells to generate ATP though oxidative phosphorylation, since glycolysis of galactose is ATP neutral.
Cells were transduced with shRNA lentivirus constructs obtained from Santa Cruz (glud1 #145446-V, for Scrambled #108080). Cells were then seeded at single cell/well densities in a 96-well dish and selected for with puromycin. Clones were grown and tested for knockdown by western blot.
Astrocytes were plated at a density of 3000-5000 cells/well in a white, opaque-bottom 96-well dish (Corning). If cells were tested in galactose medium, they were seeded in galactose medium, and left for a minimum of 16 hours before subjected to treatment. Galactose medium was made with glucose-, pyruvate-, phenol-, and glutamine-free DMEM (Gibco) which was then supplemented with 0.9 mg/ml galactose (Sigma), pyruvate (Quality biological, Inc), and 10% dialyzed FBS (Gibco). Treatments were performed for 20 min unless otherwise stated and concentrations of drugs described elsewhere. Drugs used: MRS2365, MRS2500, AST-004, 3-Propyl-6-ethyl-5-[(ethylthio)carbonyl]-2 phenyl-4-propyl-3-pyridine carboxylate (MRS1523) (Tocris Bioscience), sodium dichloroacetate (DCA) (Sigma Aldrich), Oligomycin (Sigma Aldrich), 1-(2-(2-tert-Butylphenoxy)pyridin-3-yl)-3-(4-(trifluoromethoxy)phenyl)urea (BPTU) (Millipore), and Ruthenium 360 (Cal Biochem). Next, media was removed from cells, and 100 μl fresh media immediately added. Then, 95 μl of mixed luminescence substrate from the ATPlite 1-Step kit were added (Perkin-Elmer). Plates were wrapped in aluminum foil and shaken for 3 min on a plate rotator before reading on a luminometer. Readings were normalized to protein as determined by Coomassie Plus Bradford assay (Thermo Fisher). All statistics were analyzed using GraphPad Prism software.

[3] = test system: cocaine self-administering mice; test: Cocaine self-administration; assay type: in vivo, mouse; details: osmotic minipump, 100 μL at 2.78 mM
Description: Data that are normalized to each mouse's individual cocaine intake at baseline. Mice were trained to self-administer cocaine (0.5 mg/kg/infusion) on a fixed ratio 3 schedule in 2-hr daily sessions. After their intake stabilized (baseline) mice were implanted with osmotic minipumps on day 0 either containing saline (filled circles) or the drug AST-004 (open circles), n=5 mice in each group. Mice were given a day off (day 7), then returned to self-administration in daily sessions. Note the number of infusions goes down in the AST-004 treated mice, while saline treated mice increased infusions.
We used procedures adapted from our recently published work that describes i.v. cocaine self-administration in fully fed mice (6, 7). Male C57BL/6J mice (6 to 7-week-old) purchased from Jackson labs and were kept on a 12/12-hour reverse light-dark cycle (lights off at 0900 h) with ad libitum access to food and water. Cocaine hydrochloride (generously provided by the NIDA drug supply program, Bethesda, MD) was dissolved in sterile physiological saline (NaCl 0.9%). Cocaine was prepared at a concentration that delivers 0.5 mg/kg/12 μL per infusion, based on a typical weight of a young adult mouse (28 g). Mice were implanted with an indwelling catheter in the right jugular vein. […]

[4] = test system: traumatic brain injury (TBI); test: Traumatic brain injury (TBI), GFAP expression by Western blot; details: for TBI induced increases in GFAP expression: treatment 30 min post-TBI, ipsilateral brain homogenates and plasma at day 7, vs TBI untreated
Description: Mice underwent sham or TBI (on Ipsilateral side of brain) and received treatments as labeled 30 min post-TBI. Plasma was obtained from mice at 7 days post-injury, then sacrificed to obtain brain homogenates from the ipsilateral and contralateral hemispheres (middle third). Western blot analysis were normalized to actin. (A and C) Representative blots are shown for Ipsilateral brain homogenates and the plasma at day 7. (B and D) Data were pooled from 3 distinct experiments (N=number of mice per treatment) and plotted as bar histograms, shown as mean of control+/−SEM. *p<0.05 and ** p<0.01 from TBI untreated (dark gray bar).

[5] = 20 min treatment, normal glucose medium

Structure (SMILES) | integrated Ca2+ response (cultured astrocytes; astrocytes cultured from mouse, rat, pig and human brain tissue) | intracellular Ca2+ (cultured astrocytes; cultured astrocytes, Cal520 dye) | stimulation of Ca2+ release under pertussis toxin treatment (cultured astrocytes; pertussis toxin treatment, consistent with Gq-coupling) | ATP production (OCR revealed by oligomycin) (astrocytes (C8-D1A); 400 nM) | basal respiration (OCR) (astrocytes (C8-D1A); after addition to the bath at 15 minutes, vs control injections) | maximal respiration (OCR after FCCP) (astrocytes (C8-D1A); uncoupling by FCCP) | stroke infarction volume ([1]; 0.2 mg/kg, intraperitoneally within 30 min post stroke, 24 hours post-stroke, vs vehicle) | photon flux levels (ATP-production in astrocytes) [2] | ATP levels, control cells (scrambled shRNA) (astrocytes; [5]) | cocaine self-administration ([3]; FR3, 2-hr daily sessions, vs saline) | cocaine intake normalized to baseline ([3]; over 2 weeks, n=5) | neuroprotection after traumatic brain injury (TBI) ([4]; mice) | TBI induced increases in GFAP expression [4] | ATP levels, control cells (scrambled shRNA), galactose medium (astrocytes; 20 min treatment, glucose-free, galactose supplemented media) | ATP levels, astrocytes with reduced levels of GLUD1 (GLUD1 shRNA) (astrocytes; [5]) | ATP levels, astrocytes with reduced GLUD1 levels, galactose medium (astrocytes; in the presence of galactose) | reduction of stroke infarction volume by AST-004 after antagonist pretreatment ([1]; pretreatment with the A3R antagonist)
CSc1nc(N)c2ncn([C@H]3[C@H](O)[C@H](O)[C@]4(CO)C[C@H]34)c2n1 [AST-004] | dose-dependent | stimulates intracellular Ca2+ | not blocked | significantly greater | increased | significantly higher | significantly reduced | significantly higher | increased ATP levels in a GLUD1-dependent manner | significantly reduces | approximately 60 % of baseline | neuroprotective | reduced |  |  |  | 
CSc1nc(N)c2ncn([C@H]3[C@H](O)[C@H](O)[C@]4(COP(=O)(O)OP(=O)(O)O)C[C@H]34)c2n1 [MRS2365] |  |  |  |  |  |  |  |  | significantly increased |  |  |  | reduced | significantly increased | not responsive | similarly non-responsive | 
CCCOC(=O)c1c(-c2ccccc2)nc(CC)c(C(=O)SCC)c1CCC [MRS1523, 3-Propyl-6-ethyl-5-[(ethylthio)carbonyl]-2 phenyl-4-propyl-3-pyridine carboxylate, reference compound] |  |  |  |  |  |  |  |  |  |  |  |  |  |  |  |  | blocked
